In brackets after ≈: the same amount, converted by molar mass. Activity calls are given as the source filed them. The rule behind the calls is not given here.
How the values were obtained:
Bacillus subtilis = experiment: Antibacterial activity against Bacillus subtilis incubated for 24 hrs by resazurin based assay; format: functional
MCF7 = experiment: Cytotoxicity against human MCF7 cells assessed as reduction in cell viability after 24 hrs by PrestoBlue dye based fluorescence assay; format: functional; settings: MCF7, 24 h
Escherichia coli = experiment: Antibacterial activity against Escherichia coli incubated for 24 hrs by resazurin based assay; format: functional, organism-based

| MIC (Bacillus subtilis) | SMILES | EC50 (MCF7) | Activity (Escherichia coli) |
| --- | --- | --- | --- |
| 14 µM (≈ 7.57 µg/mL) | COc1cc(O)c2c(c1)O[C@@H](c1ccc(O)cc1)[C@H]([C@@H]1C(=O)c3ccc(O)cc3O[C@H]1c1ccc(O)cc1)C2=O |  |  |
| > 250 µM | COc1cc(O)c2c(c1)OC(c1ccc(O)cc1)C(C1C(=O)c3c(O)cc(OC)cc3OC1c1ccc(O)cc1)C2=O (stereo not drawn) |  |  |
| > 250 µM | O=C(c1ccc(O)cc1O)[C@H]1[C@H](C(=O)c2ccc(O)cc2O)[C@H](c2ccc(O)cc2)O[C@@H]1c1ccc(O)cc1 | 24 µM | inactive |

Second part, the compound before the results:

| SMILES | MIC (Bacillus subtilis) | EC50 (MCF7) | Activity (Escherichia coli) |
| --- | --- | --- | --- |
| COc1ccc([C@H]2Oc3cc(OC)cc(O)c3C(=O)[C@@H]2[C@H]2C(=O)c3c(O)cc(OC)cc3O[C@@H]2c2ccc(O)cc2)cc1 | > 250 µM |  |  |
| O=C1c2ccc(O)cc2O[C@@H](c2ccc(O)cc2)[C@@H]1[C@@H]1C(=O)c2ccc(O)cc2O[C@H]1c1ccc(O)cc1 | > 250 µM |  |  |
| O=C(/C=C/c1ccc(O)c(Oc2ccc(CCC(=O)c3ccc(O)cc3O)cc2)c1)c1ccc(O)cc1O | > 250 µM |  |  |

From ChEMBL document CHEMBL4819029, “Biflavanones, Chalconoids, and Flavonoid Analogues from the Stem Bark of Ochna holstii” (J Nat Prod, 2021)
